Measurements from patent EP0219838A2, “Carbocyclic purine nucleosides, their production and use” (Takeda Chemical Industries, Ltd., priority 1985, dated 1987).
Values after ≈ are worked out from the molar mass of the structure shown. Where two headings read alike, the source gives them in different places.

Assays:
Format in all cases: cell-based
[1] = test system: Herpes Simplex Virus Type 1, HF Strain; assay: Inhibitory effect against herpes simplex virus (reduction of viral cytopathogenic effect) in Vero cells
Excerpt: (§1) Vero cells were infected with 100 TCID₅₀ (50% tissue-culture infected doses) of viruses and cultured with various concentrations of the compounds.

[2] = Cytotoxicity in non-infected control culture (Vero cells); details: monkey
Excerpt: as §1

Adenovirus, Type 3 = assay: Antiadenovirus activity (reduction of viral cytopathogenic effect) in FL cells; details: Human mastadenovirus B, 192 h; 50% inhibitory dose; FL cells infected with 100 TCID50; observed eight days after the infection; read-out: ID50 (the source's name)
Excerpt: FL cells were infected with 100 TCID₅₀ (50% tissueculture infected doses) of viruses and cultured with various concentrations of the compouns.

[3] = Cytotoxicity in non-infected control culture (FL cells); details: human, non-infected FL cell control culture, eight days
[4] = Human alphaherpesvirus 1, 72 h, concentration required to reduce the viral cytopathogenic effect by 50%, Vero cells infected with 100 TCID50, observed three days after the infection, read-out: ID50 (the source's name)
[5] = Human alphaherpesvirus 1, Vero, 72 h, read-out: ID50

Row | SMILES | IC50 [1, 4] | MCC at 72 h ([2]; vero cells) | IC50 (Adenovirus, Type 3) | MCC at 192 h [3] | IC50 [1, 5] | MCC at 72 h ([2]; minimum concentration to cause a visible disruption of normal cell morphology, non-infected Vero cells, three days, read-out: Cytotoxicity)
1 | Nc1nc2c(ncn2[C@@H]2C[C@H](CO)[C@H](O)C2)c(=O)[nH]1 [9-[(1R, 3R, 4R)-4-hydroxymethyl-3-hydroxycyclopentan-1-yl]guanine] | 0.049 µg/mL (≈ 0.185 µM) | 12.5 µg/mL | 0.39 µg/mL (≈ 1.47 µM) | 3.13 µg/mL | – | –
2 | Nc1nc2c(ncn2COCCO)c(=O)[nH]1 [Acyclovir] | 3.13 µg/mL (≈ 13.9 µM) | 800 µg/mL | 200 µg/mL (≈ 888 µM) | 400 µg/mL | – | –
3 | Nc1ncnc2c1ncn2[C@@H]1O[C@H](CO)[C@@H](O)[C@@H]1O [Ara-A] | – | 100 µg/mL | – | – | 12.5 µg/mL (≈ 46.8 µM) | –
4 | O=c1[nH]c(=O)n([C@H]2C[C@H](O)[C@@H](CO)O2)cc1I [IUDR] | 50 µg/mL (≈ 141 µM) | 200 µg/mL | – | – | – | –
5 | Nc1ccn([C@@H]2O[C@H](CO)[C@@H](O)[C@@H]2O)c(=O)n1 [Ara-C] | – | – | – | – | 0.39 µg/mL (≈ 1.6 µM) | 0.78 µg/mL
6 | O=c1[nH]c(=O)n([C@H]2C[C@H](O)[C@@H](CO)O2)cc1Br [BUDR] | 25 µg/mL (≈ 81.4 µM) | 100 µg/mL | – | – | – | –
